Measured values from patent US20250170116A1, “PHARMACEUTICAL COMPOSITION FOR PREVENTING AND/OR TREATING RENAL DISEASE” (priority 2022, published 2025).

Legend:
[1] = system: rats with puromycin aminonucleoside-induced kidney injury (focal segmental glomerulosclerosis / minimal change nephrotic syndrome model rats); assay: Test Example 1: action of Compound 011 in rats with puromycin aminonucleoside-induced kidney injury; format: in vivo, S.D. rats; details: for urinary protein levels lower compared with PAN group: Bradford method
Experimental: Eight-week-old S.D. rats (male, 8 rats) were intraperitoneally injected with 120 mg/kg of puromycin aminonucleoside (PAN) under anesthesia (day 0). PAN damages glomerular basement membrane cells (podocytes) and induces glomerular injury in rats. The PAN-treated rats were focal segmental glomerulosclerosis model rats and minimal change nephrotic syndrome model rats. The test compound (Compound 011) was mixed with food and administered (10 mg/kg/day) on or after the third day after the PAN injection. The rats were kept under a 12-hour light-dark cycle (lights on from 7:00 am to 7:00 pm, and lights off from 7:00 pm to 7:00 am the next morning), and food and water were provided ad libitum (PAN+011 group). Urine was collected on day 0, i.e., the day of PAN administration, and on days 3, 10, 20, and 27 after PAN administration. Urine was collected by placing the rats in metabolic cages for 17 hours (5:00 pm to 10:00 am the next morning). Separately, as controls, a group without PAN treatment and without test compound administration (control group, male, 3 animals), a group without PAN treatment but with test compound administration (control+011 group, male, 5 animals), and a group with PAN treatment but without test compound administration (PAN group, male, 9 animals) were also tested in the same manner. The urinary protein levels were measured by using the Bradford method. The serum albumin levels were measured by using an improved BCP (bromocresol purple) method. In the PAN group, the number of serum samples was 8 because one animal from which a serum sample was unable to be collected was excluded. On day 27 after PAN administration, the left kidney of each rat was removed, the size was visually observed, and the weight was measured. The number of left kidney samples of the control group was 3 because the left kidneys of three animals in this group were all removed and weighed. The number of left kidney samples of the control+011 group was 4 because the left kidneys of 4 of the 5 animals in this group were removed and weighed. The number of left kidney samples of the PAN group was 7 because the left kidneys of 7 of the 9 animals in this group were removed and weighed. The number of left kidney samples of the PAN+011 group was 7 because the left kidneys of 7 of the 8 animals in this group were removed and weighed.

[2] = system: rats with puromycin aminonucleoside-induced kidney injury (focal segmental glomerulosclerosis model rats); assay: Test Example 3: action of Compound 011 in PAN-treated rats with more severe symptoms for a longer period; format: in vivo, S.D. rats
Experimental: The action of Compound 011 on PAN-treated rats with more severe symptoms for a longer period of time than in Test Example 1 was studied. Eight-week-old S.D. rats (male, 8 rats) were intraperitoneally injected with 120 mg/kg of puromycin aminonucleoside (PAN) under anesthesia. Then, one month later, PAN was again injected intraperitoneally at 60 mg/kg. PAN creates focal segmental glomerulosclerosis model rats by disrupting glomerular basement membrane cells (podocytes) (Kim, J Mol Med, 2018, 96, 631-644). Furthermore, these model rats are known to develop chronic kidney damage accompanied by lymphocyte and macrophage infiltration (Ornellas, Sci Rep, 2019, 9:19604). The test compound (Compound 011) was mixed with food and administered (10 mg/kg/day) on or after the third day after the PAN injection. The rats were kept under a 12-hour light-dark cycle (lights on from 7:00 am to 7:00 pm, and lights off from 7:00 pm to 7:00 am the next morning), and food and water were provided ad libitum (PAN+011 group). Chronic proteinuria may sometimes occur after the first administration of PAN without a second administration of PAN. […] Two months after the first administration of PAN, the kidneys of the rats were removed, their sizes were visually observed, and their weights were measured. The number of kidney samples was 4 for the PAN group and was 6 for the PAN+011 group. Subsequently, the kidneys were fixed with 4% paraformaldehyde/PBS and then paraffin-embedded, and sections were prepared. The sections were treated with PAS (periodic acid-Schiff) staining, and PAS-stained positive areas (inflammatory cell areas) were evaluated. To extract RNA, a portion of tissue around the surface layer of the kidney was quickly frozen to −80° C. cDNA was produced from RNA extracted from the tissue by reverse transcriptase, and gene expression was evaluated by real-time PCR. TB Green Premix Ex Taq II (Takara Bio Inc.) was used as a reagent for the reaction, and a QuantStudio 5 system (Thermo Fisher) was used for the analysis.

[3] = PAN+011 group vs PAN group, two months after PAN
[4] = PAN+011 group, after 2 months, 10 mg/kg/day mixed with food, *p<0.03

Compound: O=C(O)c1cnc(N2CCN(c3noc4cccc(C(F)(F)F)c34)CC2)c(Cl)c1 [Compound 011, 5-Chloro-6-(4-(4-(trifluoromethyl)benzo[d]isoxazol-3-yl)piperazin-1-yl)nicotinic acid]
- urinary protein levels lower compared with PAN group ([1]; PAN+011 group vs PAN group, day 10 after PAN, 10 mg/kg/day mixed with food): 38%
- serum albumin levels ([1]; PAN+011 group vs PAN group, day 27, improved BCP method, **p<0.01): almost no PAN-treatment-induced decrease in serum albumin levels
- left kidney weight per rat body weight ([1]; PAN+011 group vs PAN group, day 27 after PAN): smaller increase in kidney weights
- urinary protein levels lower compared with PAN group ([1]; PAN+011 group vs PAN group, day 27 after PAN, 10 mg/kg/day mixed with food): 48%
- urinary protein levels, control+011 group vs control group ([1]; rats without PAN treatment, 10 mg/kg/day mixed with food): No difference
- CD4 expression level in kidney tissue (quantitative PCR, relative to GAPDH) [2, 3]: significantly decreased
- CD86 expression level in kidney tissue (quantitative PCR, relative to GAPDH) [2, 3]: significantly decreased
- TGF-β expression level in kidney tissue (quantitative PCR, relative to GAPDH) [2, 3]: significantly decreased
- left kidney weight per rat body weight, decrease compared with PAN group [2, 4]: 29%
- right kidney weight, decrease compared with PAN group [2, 4]: 28%
- suppression of formation of tertiary lymphoid tissue-like structures (PAS-stained positive area) ([2]; kidney sections two months after PAN, on average): ≥ 50%
